For this experiment, the system named is Radical scavenging activity. The experiment in a line: Antioxidant activity assessed as DPPH radical scavenging activity. The format is functional. A general note: DPPH is a stable violet radical that fades when it is reduced.

In the case of `Cc1ccc2c(c1O)OCC(c1ccc(O)cc1)C2` (stereo not given), the ED50 came out at 111 µM.

For `Cc1c(O)cc2c(c1C)OCC(c1ccccc1)C2` (stereo not given), the ED50 came to 81 µM.

`Cc1c(O)cc(C(=O)Cc2ccccc2)c(O)c1C`: the ED50 is 42 µM.

In the case of `COc1ccc(CC(=O)c2cc(O)c(OC)cc2O)cc1`, the ED50 turned out to be 31 µM.

For `COc1ccc2c(c1O)OCC(c1ccccc1)C2` (stereo not given), the ED50 is 168 µM.

For the compound `O=c1c(-c2ccccc2)coc2c(O)c(O)ccc12`, the ED50 was 29 µM.

Take `COc1cc2c(cc1O)OCC(c1ccccc1)C2` (stereo not given): the ED50 amounted to 29 µM.

As for `COc1ccc(CC(=O)c2cc(O)c(O)cc2O)cc1`, the ED50 worked out at 32 µM.

For `COc1ccc(C2COc3cc(O)c(OC)cc3C2)cc1` (stereo not given), the ED50 amounted to 26 µM.

`COc1ccc(CC(=O)c2cc(O)c(C)cc2O)cc1`: the ED50 stood at 23 µM.

Regarding `COc1ccc(C2COc3cc(C)c(O)cc3C2)cc1` (stereo not given), the ED50 was determined as 45 µM.

With `COc1cc(-c2coc3cc(OC)c(O)cc3c2=O)ccc1O`, the ED50 was 404 µM.

For the compound `COc1cc2c(cc1O)CC(c1ccccc1)CO2` (stereo not given), the ED50 came out at 49 µM.

As for `O=C(Cc1ccc(O)c(O)c1)c1ccc(O)cc1O`, the ED50 came out at 20 µM.

Regarding `COc1ccc(CC(=O)c2ccc(O)c(O)c2O)cc1`, the ED50 is 38 µM.

On to `O=C(Cc1ccccc1)c1cc(O)c(O)cc1O`, for which the ED50 came out at 29 µM.

Take `COc1cc(CC(=O)c2ccc(O)c(O)c2O)ccc1O`: the ED50 came out at 25 µM.

`COc1cc(-c2coc3cc(OC)c(OC)cc3c2=O)ccc1O`: the ED50 is 722 µM.

For `COc1ccc2c(=O)c(-c3ccccc3)coc2c1O`, the ED50 is 812 µM.

As for `COc1cc(CC(=O)c2cc(O)c(OC)cc2O)ccc1O`, the ED50 amounted to 26 µM.

Regarding `COc1cc(O)c(C(=O)Cc2ccc(O)cc2)cc1O`, the ED50 turned out to be 38 µM.

`COc1cc(CC(=O)c2ccc(OC)c(O)c2O)ccc1O`: the ED50 turned out to be 28 µM.

In the case of `COc1ccc(C(=O)Cc2ccccc2)c(O)c1O`, the ED50 was found to be 20 µM.

In the case of `COc1ccc(C2COc3c(ccc(OC)c3O)C2)cc1` (stereo not given), the ED50 was 224 µM.

As to `COc1cc(CC(=O)c2ccc(O)cc2O)ccc1O`, the ED50 was 180 µM.

On to `Cc1cc2occ(-c3ccc(O)c(O)c3)c(=O)c2cc1O`, for which the ED50 is 23 µM.

Turning to `COc1cc2occ(-c3ccc(O)c(O)c3)c(=O)c2cc1OC`, the ED50 came out at 46 µM.

In the case of `Oc1ccc(C2COc3c(ccc(O)c3O)C2)cc1O` (stereo not given), the ED50 was 22 µM.

Regarding `Oc1ccc2c(c1O)OCC(c1ccccc1)C2` (stereo not given), the ED50 is 37 µM.

In the case of `O=c1c(-c2ccc(O)cc2)coc2cc(O)c(O)cc12`, the ED50 turned out to be 29 µM.

Consider `COc1ccc(CC(=O)c2ccc(OC)c(O)c2O)cc1`, for which the ED50 was found to be 44 µM.

In the case of `O=C(Cc1ccc(O)c(O)c1)c1ccc(O)c(O)c1O`, the ED50 was 12 µM.

In the case of `COc1cc2c(cc1O)OCC(c1ccc(O)cc1)C2` (stereo not given), the ED50 was 26 µM.

Consider `Cc1ccc2c(=O)c(-c3ccc(O)c(O)c3)coc2c1O`, for which the ED50 was 46 µM.

`COc1ccc(-c2coc3cc(O)c(O)cc3c2=O)cc1`: the ED50 was determined as 29 µM.

Turning to `COc1cc2occ(-c3ccc(O)c(O)c3)c(=O)c2cc1O`, the ED50 stood at 36 µM.

With `Cc1cc(O)c(C(=O)Cc2ccc(O)cc2)cc1O`, the ED50 worked out at 31 µM.

In the case of `COc1cc(O)c(C(=O)C(C)c2ccccc2)cc1O` (stereo not given), the ED50 was 48 µM.

Consider `COc1cc(CC(=O)c2cc(OC)c(O)cc2O)ccc1O`, for which the ED50 turned out to be 129 µM.

In the case of `COc1cc(-c2coc3cc(O)ccc3c2=O)ccc1O`, the ED50 was determined as 805 µM.

With `COc1cc2c(cc1OC)OCC(c1ccc(O)c(O)c1)C2` (stereo not given), the ED50 came out at 69 µM.

In the case of `COc1ccc(-c2coc3cc(O)c(OC)cc3c2=O)cc1`, the ED50 amounted to 663 µM.

As for `COc1cc(-c2coc3cc(O)c(OC)cc3c2=O)ccc1O`, the ED50 came out at 655 µM.

Regarding `Cc1cc(O)c(C(=O)Cc2ccc(O)c(O)c2)cc1O`, the ED50 was 20 µM.

On to `COc1ccc(-c2coc3c(O)c(O)ccc3c2=O)cc1`, for which the ED50 was 51 µM.

On to `Cc1ccc2c(c1O)OCC(c1ccccc1)C2` (stereo not given), for which the ED50 worked out at 61 µM.

Consider `O=C(Cc1ccccc1)c1ccc(O)c(O)c1O`, for which the ED50 amounted to 32 µM.

Regarding `COc1ccc(C2COc3cc(OC)c(O)cc3C2)cc1` (stereo not given), the ED50 was found to be 60 µM.

In the case of `COc1cc(O)c(C(=O)Cc2ccccc2)cc1O`, the ED50 turned out to be 51 µM.

With `COc1cc(CC(=O)c2cc(OC)c(OC)cc2O)ccc1O`, the ED50 was found to be 84 µM.

As for `COc1cc(O)c(C(=O)Cc2ccc(O)c(O)c2)cc1OC`, the ED50 was 25 µM.

Consider `COc1ccc(C2COc3c(ccc(C)c3O)C2)cc1` (stereo not given), for which the ED50 was found to be 52 µM.

Turning to `O=C(Cc1ccc(O)cc1)c1cc(O)c(O)cc1O`, the ED50 worked out at 27 µM.

As to `O=c1c(-c2ccc(O)cc2)coc2c(O)c(O)ccc12`, the ED50 stood at 34 µM.

As to `COc1ccc(-c2coc3c(O)c(OC)ccc3c2=O)cc1`, the ED50 came out at 489 µM.

In the case of `COc1cc(O)c(C(=O)Cc2ccc(O)c(O)c2)cc1O`, the ED50 is 19 µM.

On to `Oc1ccc2c(c1)OCC(c1ccc(O)c(O)c1)C2` (stereo not given), for which the ED50 was determined as 37 µM.

As for `COc1ccc(C2COc3c(ccc(O)c3O)C2)cc1OC` (stereo not given), the ED50 was 105 µM.

`COc1cc(-c2coc3c(O)c(C)ccc3c2=O)ccc1O`: the ED50 came out at 476 µM.

As to `COc1ccc(C2COc3c(ccc(O)c3O)C2)cc1` (stereo not given), the ED50 is 36 µM.

Regarding `CC(C(=O)c1ccc(O)c(O)c1O)c1ccccc1` (stereo not given), the ED50 came out at 23 µM.

`O=c1c(-c2ccc(O)c(O)c2)coc2cc(O)ccc12`: the ED50 came out at 30 µM.

Consider `O=c1c(-c2ccc(O)c(O)c2)coc2c(O)c(O)ccc12`, for which the ED50 amounted to 16 µM.

For the compound `COc1cc2c(cc1O)CC(c1ccc(O)cc1)CO2` (stereo not given), the ED50 was determined as 62 µM.

Turning to `O=C(Cc1ccc(O)cc1)c1ccc(O)c(O)c1O`, the ED50 is 22 µM.

For `COc1ccc(C(=O)Cc2ccc(O)c(O)c2)c(O)c1O`, the ED50 stood at 20 µM.

`COc1cc(-c2coc3c(O)c(OC)ccc3c2=O)ccc1O`: the ED50 was found to be 228 µM.

With `Oc1ccc(C2COc3c(ccc(O)c3O)C2)cc1` (stereo not given), the ED50 worked out at 37 µM.

For `Cc1c(O)cc(C(=O)Cc2ccc(O)c(O)c2)c(O)c1C`, the ED50 is 18 µM.

On to `COc1cc(O)c(C(=O)Cc2ccc(OC)c(OC)c2)cc1O`, for which the ED50 was 39 µM.

As to `COc1cc(CC(=O)c2cc(O)c(C)cc2O)ccc1O`, the ED50 is 22 µM.

With `Cc1c(O)cc2c(=O)c(-c3ccc(O)c(O)c3)coc2c1C`, the ED50 is 85 µM.

`COc1ccc(CC(=O)c2cc(O)c(C)c(C)c2O)cc1`: the ED50 amounted to 93 µM.

On to `COc1ccc(CC(=O)c2ccc(O)c(O)c2O)cc1OC`, for which the ED50 was 63 µM.

For `Oc1ccc(C2COc3cc(O)cc(O)c3C2)cc1` (stereo not given), the ED50 was found to be 32 µM.

Regarding `COc1cc2c(cc1O)CC(c1ccc(OC)c(OC)c1)CO2` (stereo not given), the ED50 stood at 56 µM.

As for `COc1ccc(C2COc3cc(O)cc(O)c3C2)cc1` (stereo not given), the ED50 is 26 µM.

Turning to `O=c1c(-c2ccccc2)coc2cc(O)c(O)cc12`, the ED50 was determined as 44 µM.

With `CC(C(=O)c1ccc(O)c(O)c1O)c1ccc(O)cc1` (stereo not given), the ED50 was 18 µM.

Regarding `COc1cc(-c2coc3c(O)c(O)ccc3c2=O)ccc1O`, the ED50 amounted to 33 µM.

Turning to `COc1cc(O)c(C(=O)C(C)c2ccc(O)cc2)cc1O` (stereo not given), the ED50 amounted to 45 µM.

With `Cc1cc(O)c(C(=O)Cc2ccccc2)cc1O`, the ED50 came to 43 µM.

`Cc1c(O)cc(C(=O)Cc2ccc(O)cc2)c(O)c1C`: the ED50 was found to be 33 µM.

On to `COc1cc(-c2coc3cc(C)c(O)cc3c2=O)ccc1O`, for which the ED50 is 232 µM.

In the case of `COc1ccc2c(=O)c(-c3ccc(O)c(O)c3)coc2c1O`, the ED50 amounted to 53 µM.

These data come from ChEMBL document CHEMBL1287646, “Chemometric modeling of free radical scavenging activity of flavone derivatives” (Eur J Med Chem, 2010).
